The results in this text go back to article PMC2752035 (Bioorganic & medicinal chemistry, 2009).

In the test the target is sarco/endoplasmic reticulum calcium ATPase (SERCA) (Oryctolagus cuniculus, UniProt P04191). Description: SERCA-catalyzed ATP hydrolysis, coupled PK/LDH NADH oxidation assay.
Sequence of sarco/endoplasmic reticulum calcium ATPase (SERCA) (P04191 1-994 isoform P04191-2): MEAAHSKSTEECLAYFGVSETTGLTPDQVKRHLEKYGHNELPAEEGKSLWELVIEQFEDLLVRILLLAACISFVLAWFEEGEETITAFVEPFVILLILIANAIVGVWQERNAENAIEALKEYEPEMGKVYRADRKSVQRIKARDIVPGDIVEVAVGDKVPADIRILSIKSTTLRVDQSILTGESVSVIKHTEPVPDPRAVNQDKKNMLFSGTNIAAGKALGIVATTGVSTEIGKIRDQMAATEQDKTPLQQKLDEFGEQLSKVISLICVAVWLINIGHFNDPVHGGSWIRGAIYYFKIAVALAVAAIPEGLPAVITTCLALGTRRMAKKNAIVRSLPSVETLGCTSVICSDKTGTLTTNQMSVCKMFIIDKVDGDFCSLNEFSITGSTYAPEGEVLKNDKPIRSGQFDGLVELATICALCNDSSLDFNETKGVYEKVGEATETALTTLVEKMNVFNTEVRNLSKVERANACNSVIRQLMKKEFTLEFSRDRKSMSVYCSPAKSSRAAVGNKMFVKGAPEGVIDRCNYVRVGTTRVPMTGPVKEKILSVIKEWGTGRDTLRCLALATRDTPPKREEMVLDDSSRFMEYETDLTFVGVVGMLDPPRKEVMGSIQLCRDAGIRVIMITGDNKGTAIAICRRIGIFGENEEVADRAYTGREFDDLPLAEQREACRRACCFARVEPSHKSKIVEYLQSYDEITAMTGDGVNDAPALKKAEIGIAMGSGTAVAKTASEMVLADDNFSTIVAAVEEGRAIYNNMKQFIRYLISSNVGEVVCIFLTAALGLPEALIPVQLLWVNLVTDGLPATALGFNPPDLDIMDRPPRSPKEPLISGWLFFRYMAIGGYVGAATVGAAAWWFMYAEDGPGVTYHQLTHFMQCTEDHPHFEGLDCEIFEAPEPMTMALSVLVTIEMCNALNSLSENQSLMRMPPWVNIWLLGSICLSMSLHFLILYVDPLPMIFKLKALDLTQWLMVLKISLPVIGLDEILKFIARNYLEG

Consider `CC(C)(C)OC(=O)NCCCC(=O)Oc1cc(C(C)(C)C)c(OC(=O)CCCNC(=O)OC(C)(C)C)cc1C(C)(C)C` [8a], for which the “SERCA inhibition (activity in words)” value was “inactive”.
